Data from patent US20030187000A1, “Inhibitors for de novo-RNA polymerases and methods of identifying targets for same” (priority 2002, published 2003).

Target: T1, NS5B (Hepatitis C virus genotype 1b, UniProt P26663)
T1 construct: the RNA dependent RNA polymerase from hepatitis C virus (NS5B)
Experiment: Binding studies of thiomethylsulfonate derivatives
Details: among heterocyclic/aromatic-substituted thiomethylsulfonate derivatives of FIG. 1
Excerpt: Cys366 was modified by both compounds (i.e., BMTS and MMTS) and is located in the proximity of the primer-binding site (i.e., initiation nucleotide binding site) of the enzyme. […] Based on these observations, it should especially be recognized that specific modification of Cys366 near the primer-binding site may advantageously be employed for rational inhibitor design. Furthermore, it is contemplated that second-generation compounds may even operate without involvement of the Cys366 (i.e., without formation of a covalent bond) by targeting only the small pocket of the NS5B. To explore the binding affinity and specificity to the cysteines near the active sites of NS5B, a exemplary heterocyclic/aromatic-substituted thiomethylsulfonate derivatives were designed and synthesized as depicted in FIG. 1. […] This compound was also soaked into the polymerase NS5B.

T1 sequence (P26663 2420-3010): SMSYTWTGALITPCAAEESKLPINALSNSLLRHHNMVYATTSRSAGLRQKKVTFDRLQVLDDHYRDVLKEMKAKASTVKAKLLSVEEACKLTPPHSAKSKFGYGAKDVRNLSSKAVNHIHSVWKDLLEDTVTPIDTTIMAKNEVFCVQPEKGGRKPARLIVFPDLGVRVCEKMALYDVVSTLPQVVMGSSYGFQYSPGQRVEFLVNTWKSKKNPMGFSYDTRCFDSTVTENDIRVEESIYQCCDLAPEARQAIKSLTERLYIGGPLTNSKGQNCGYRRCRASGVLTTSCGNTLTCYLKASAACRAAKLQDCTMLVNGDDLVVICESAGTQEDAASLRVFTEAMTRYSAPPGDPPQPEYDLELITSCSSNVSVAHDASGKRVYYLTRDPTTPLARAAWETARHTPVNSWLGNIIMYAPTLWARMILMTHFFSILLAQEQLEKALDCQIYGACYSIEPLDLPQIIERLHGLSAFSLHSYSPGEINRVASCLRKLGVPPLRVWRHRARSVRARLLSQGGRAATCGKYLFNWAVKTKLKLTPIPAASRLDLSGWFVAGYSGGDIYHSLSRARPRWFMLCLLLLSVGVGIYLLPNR

In the case of `CS(=O)(=O)SCc1ccc(Cl)s1` [(5-chlorothiophen-2-yl)methylthiomethylsulfonate], the binding affinity is reported as “highest binding affinity”.
